Assay results published in EP4603105A1, “PHARMACEUTICAL COMPOSITION CONTAINING CYCLIC COMPOUND HAVING SELECTIVE KRAS INHIBITORY EFFECT AGAINST HRAS AND NRAS” (CHUGAI SEIYAKU KABUSHIKI KAISHA, priority 2022, dated 2024).

Experiments:
HRAS wild-type protein = HRAS wild-type protein (Homo sapiens, UniProt P01112); assay: Binding to HRAS by surface plasmon resonance (SPR), KD and KD ratio to KRAS
In short: (§1)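 SPR, 30°C: Avi-biotin RAS·GDP captured via Biotin CAPture (~100–300 RU); running buffer HBS pH 7.4, 1 mM DTT, 10 mM MgCl2, 0.01% Tween 20, 10 µM GDP, 4% DMSO. Single-cycle kinetics, 100 µL/min, 75 s injections; 1:1 model → KD.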

[1] = target: GDP-bound NRAS wild-type protein (Homo sapiens, UniProt P01111); assay: Binding to NRAS by surface plasmon resonance (SPR), KD and KD ratio to KRAS
GDP-bound NRAS wild-type protein, sequence (P01111 whole entry): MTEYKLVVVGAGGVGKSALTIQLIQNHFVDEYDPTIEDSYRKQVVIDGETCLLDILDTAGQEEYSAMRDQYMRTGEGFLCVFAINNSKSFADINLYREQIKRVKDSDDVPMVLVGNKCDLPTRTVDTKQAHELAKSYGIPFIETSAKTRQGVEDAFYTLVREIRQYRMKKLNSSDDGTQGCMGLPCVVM
In short: as §1

[2] = target: GDP-bound KRAS wild-type protein (Homo sapiens, UniProt P01116); assay: Binding to KRAS by surface plasmon resonance (SPR), dissociation constant KD
GDP-bound KRAS wild-type protein, sequence (P01116 1-188 isoform P01116-2): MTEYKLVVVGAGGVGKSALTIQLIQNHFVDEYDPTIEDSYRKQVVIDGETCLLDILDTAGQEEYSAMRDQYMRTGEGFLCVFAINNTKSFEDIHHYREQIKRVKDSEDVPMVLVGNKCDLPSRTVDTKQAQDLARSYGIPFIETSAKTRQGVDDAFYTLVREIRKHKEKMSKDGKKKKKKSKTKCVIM
In short: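 Compound binding is evaluated by SPR single-cycle kinetics, with concentrations added intermittently from low to high for 75 s each. Target surfaces carry GDP-loaded biotinylated Avi-RAS at about 100–300 RU, regenerated after each cycle; temperature 30°C. A 1:1 binding model gives KD.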

[3] = tested on: human lung cancer strain NCI-H441; type: cell-based
In short: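 Proliferation was scored by […] measured after the reagent was added to cultures kept at 37°C in 5% carbon dioxide.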

[4] = ratio of KD value for HRAS wild-type protein to KD value for KRAS (SPR)
[5] = ratio of KD value for GDP-bound NRAS wild-type protein to KD value for KRAS (SPR)
[6] = Single Cycle Kinetics, 1:1 binding model
[7] = ratio of the KD value with respect to HRAS wild-type protein to the KD value with respect to KRAS
[8] = ratio of the KD value with respect to GDP-bound NRAS wild-type protein to the KD value with respect to KRAS
[9] = ratio of KD for HRAS wild-type protein to KD for KRAS
[10] = ratio of KD for GDP-bound NRAS wild-type protein to KD for KRAS

HRAS wild-type protein, sequence (P01112 whole entry): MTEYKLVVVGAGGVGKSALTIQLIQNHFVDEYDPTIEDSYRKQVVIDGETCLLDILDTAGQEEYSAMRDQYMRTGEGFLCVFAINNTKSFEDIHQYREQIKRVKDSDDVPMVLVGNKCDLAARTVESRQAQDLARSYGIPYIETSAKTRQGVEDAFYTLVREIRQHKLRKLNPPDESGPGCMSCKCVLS

Compound	Kd [2, 6]	IC50 [3]	Kd ([2]; 1:1 binding model)	Kd ([2]; Single Cycle Kinetics)	HRAS /KRAS (HRAS wild-type protein; [4])	NRAS /KRAS [1, 5]	HRAS /KRAS (HRAS wild-type protein; [7])	NRAS /KRAS [1, 8]	HRAS /KRAS (HRAS wild-type protein; [9])	NRAS /KRAS [1, 10]
CC[C@H](C)[C@@H]1NC(=O)[C@H](CC2CC2)N(C)C(=O)C[C@@H](C(=O)N2CCCC2)N(C)C(=O)[C@H](C2CCCC2)N(C)C(=O)C2(CCCC2)NC(=O)[C@@H]2C[C@@H](C(F)(F)F)CN2C(=O)[C@H](CCc2cc(F)c(C(F)(F)F)c(F)c2)NC(=O)CN(C)C(=O)[C@H](Cc2ccc(F)cc2)N2CC/C=C\C[C@@H](C2=O)N(C)C(=O)CN(C)C1=O [PP1509]	0.4 nM	67.9 nM	–	–	A (a compound having 10 or more and less than 20 is denoted as A)	A (a compound having 10 or more and less than 20 is denoted as A)	–	–	–	–
CC[C@H](C)[C@@H]1NC(=O)[C@H](CC(C)C)N(C)C(=O)C[C@@H](C(=O)N(CC)CC)N(C)C(=O)[C@H](C2CCCC2)N(C)C(=O)C2(CCC2)NC(=O)[C@@H]2C[C@@H](C)CN2C(=O)[C@H](CCc2ccc(C(F)(F)F)c(OC)c2)NC(=O)CN(C)C(=O)[C@H](Cc2ccc(C)cc2)N2CC/C=C\C[C@@H](C2=O)N(C)C(=O)CN(C)C1=O [PP1849]	0.38 nM	37.1 nM	–	–	A (a compound having 10 or more and less than 20 is denoted as A)	A (a compound having 10 or more and less than 20 is denoted as A)	–	–	–	–
CCO[C@@H]1C[C@H]2C(=O)NC3(CCC3)C(=O)N(C)[C@@H](C3CCCC3)C(=O)N(C)[C@H](C(=O)N(C)C)CC(=O)N(C)[C@@H](C)C(=O)N[C@@H]([C@H](C)CC)C(=O)N(C)CC(=O)N(C)[C@H]3CCCCCN(C3=O)[C@@H](Cc3ccc(C(F)(F)F)cc3)C(=O)N(C)CC(=O)N[C@@H](CCc3cc(F)c(C(F)(F)F)c(F)c3)C(=O)N2C1 [PP0729]	2.7 nM	216 nM	–	–	–	–	B (a compound having 3 or more and less than 10 is denoted as B)	B (a compound having 3 or more and less than 10 is denoted as B)	–	–
CCO[C@@H]1C[C@H]2C(=O)NC3(CCC3)C(=O)N(C)[C@@H](C3CCCC3)C(=O)N(C)[C@H](C(=O)N(C)C)CC(=O)N(C)[C@@H](CC3CCCCC3)C(=O)N[C@@H]([C@@H](C)CC)C(=O)N(C)CC(=O)N(C)[C@H]3CCCCCN(C3=O)[C@@H](Cc3ccc(C(F)(F)F)cc3)C(=O)N(C)CC(=O)N[C@@H](CCc3cc(F)c(C(F)(F)F)c(F)c3)C(=O)N2C1 [PP0671]	0.67 nM	32.5 nM	–	–	–	–	B (a compound having 3 or more and less than 10 is denoted as B)	B (a compound having 3 or more and less than 10 is denoted as B)	–	–
CCO[C@@H]1C[C@H]2C(=O)NC3(CCC3)C(=O)N(C)[C@@H](C3CCCC3)C(=O)N(C)[C@H](C(=O)N3CCOCC3)CC(=O)N(C)[C@@H](CC(C)C)C(=O)N[C@@H]([C@H](C)CC)C(=O)N(C)CC(=O)N(C)[C@H]3CCCCCN(C3=O)[C@@H](Cc3ccc(C(F)(F)F)cc3)C(=O)N(C)CC(=O)N[C@@H](CCc3cc(F)c(C(F)(F)F)c(F)c3)C(=O)N2C1 [PP0815]	–	345 nM	–	3.9 nM	–	–	–	–	B (a compound having 3 or more and less than 10 is denoted as B)	B (a compound having 3 or more and less than 10 is denoted as B)
CCO[C@@H]1C[C@H]2C(=O)NC3(CCC3)C(=O)N(C)[C@@H](C3CCCC3)C(=O)N(C)[C@H](C(=O)N(C)C)CC(=O)N(C)[C@@H](CC)C(=O)N[C@@H]([C@@H](C)CC)C(=O)N3CCCC[C@H]3C(=O)N(C)[C@H]3C/C=C\CCN(C3=O)[C@@H](Cc3ccc(C(F)(F)F)cc3)C(=O)N(C)CC(=O)N[C@@H](CCc3cc(F)c(C(F)(F)F)c(F)c3)C(=O)N2C1 [PP1058]	–	599 nM	–	2.9 nM	–	–	–	–	B (a compound having 3 or more and less than 10 is denoted as B)	A (a compound having 10 or more and less than 20 is denoted as A)

The next compounds have a lower IC50 [3] than those just listed; values first:

Kd [2, 6]	IC50 [3]	Kd ([2]; 1:1 binding model)	Kd ([2]; Single Cycle Kinetics)	Compound	HRAS /KRAS (HRAS wild-type protein; [4])	NRAS /KRAS [1, 5]	HRAS /KRAS (HRAS wild-type protein; [7])	NRAS /KRAS [1, 8]	HRAS /KRAS (HRAS wild-type protein; [9])	NRAS /KRAS [1, 10]
0.28 nM	22.1 nM	–	–	CCCOC[C@H]1C(=O)N[C@@H]([C@@H](C)CC)C(=O)N(C)CC(=O)N(C)[C@H]2C/C=C\CCN(C2=O)[C@@H](Cc2ccc(C)cc2)C(=O)N(C)CC(=O)N[C@@H](CCc2ccc(C(F)(F)F)c(Cl)c2)C(=O)N2C[C@H](CC)C[C@H]2C(=O)NC2(CC(C)(C)C2)C(=O)N(C)[C@@H](C2CCCC2)C(=O)N(C)[C@H](C(=O)N(C)C)CC(=O)N1C [PP2235]	–	–	A (a compound having 10 or more and less than 20 is denoted as A)	A (a compound having 10 or more and less than 20 is denoted as A)	–	–
0.061 nM	13.4 nM	–	–	CCCN(C)C(=O)[C@@H]1CC(=O)N(C)[C@@H](COCC)C(=O)N[C@@H]([C@@H](C)CC)C(=O)N(C)CC(=O)N(C)[C@H]2C/C=C\CCN(C2=O)[C@@H](Cc2ccc(C(F)(F)F)cc2)C(=O)N(C)CC(=O)N[C@@H](CCc2ccc(C(F)(F)F)c(OC)c2)C(=O)N2C[C@@H](C)C[C@H]2C(=O)NC2(CCC2)C(=O)N(C)[C@@H](C2CCCC2)C(=O)N1C [PP2025]	–	–	B (a compound having 3 or more and less than 10 is denoted as B)	A (a compound having 10 or more and less than 20 is denoted as A)	–	–
–	29.9 nM	0.69 nM	–	CCO[C@@H]1C[C@H]2C(=O)NC3(CC(C)(C)C3)C(=O)N(C)[C@@H](C3CCCC3)C(=O)N(C)[C@H](C(=O)N(C)CC)CC(=O)N(C)[C@@H](CC(C)C)C(=O)N[C@@H]([C@@H](C)CC)C(=O)N(C)CC(=O)N(C)[C@H]3C/C=C\CCN(C3=O)[C@@H](Cc3ccc(C(F)F)cc3)C(=O)N(C)CC(=O)N[C@@H](CCc3cc(C)c(C(F)F)c(F)c3)C(=O)N2C1 [PP3145]	–	–	–	–	A (a compound having 10 or more and less than 20 is denoted as A)	A (a compound having 10 or more and less than 20 is denoted as A)
–	4.4 nM	–	0.081 nM	CCO[C@@H]1C[C@H]2C(=O)NC3(CCC3)C(=O)N(C)[C@@H](C3CCCC3)C(=O)N(C)[C@H](C(=O)N3CCOCC3)CC(=O)N(C)[C@@H](CC(C)C)C(=O)N[C@@H]([C@@H](C)CC)C(=O)N(C)CC(=O)N(C)[C@H]3C[C@H]4C[C@H]4CN(C3=O)[C@@H](Cc3ccc(C(F)(F)F)cc3)C(=O)N(C)CC(=O)N[C@@H](CCc3cc(F)c(C(F)(F)F)c(F)c3)C(=O)N2C1 [PP0829]	–	–	–	–	C (A compound having a KD ratio of 0.1 or more and less than 3 is denoted as C)	B (a compound having 3 or more and less than 10 is denoted as B)
0.12 nM	15.1 nM	–	–	CC[C@H](C)[C@@H]1NC(=O)[C@H](CC2CC2)N(C)C(=O)C[C@@H](C(=O)N(C)CC)N(C)C(=O)[C@H](C2CCCC2)N(C)C(=O)C2(CC(C)(C)C2)NC(=O)[C@@H]2C[C@H](C)CN2C(=O)[C@H](CCc2ccc(C(F)(F)F)c(OC)c2)NC(=O)CN(C)C(=O)[C@H](Cc2ccc(C)cc2)N2CC/C=C\C[C@@H](C2=O)N(C)C(=O)CN(C)C1=O [PP1899]	–	–	B (a compound having 3 or more and less than 10 is denoted as B)	A (a compound having 10 or more and less than 20 is denoted as A)	–	–
0.09 nM	13.6 nM	–	–	C#CC[C@H]1C(=O)N[C@@H]([C@@H](C)CC)C(=O)N(C)CC(=O)N(C)[C@H]2C/C=C\CCN(C2=O)[C@@H](Cc2ccc(C(F)(F)F)cc2)C(=O)N(C)CC(=O)N[C@@H](CCc2ccc(C(F)(F)F)c(OC)c2)C(=O)N2C[C@@H](C)C[C@H]2C(=O)NC2(CCC2)C(=O)N(C)[C@@H](C2CCCC2)C(=O)N(C)[C@H](C(=O)N(C)CCC)CC(=O)N1C [PP2063]	–	–	A (a compound having 10 or more and less than 20 is denoted as A)	AA (a compound having 20 or more is denoted as AA)	–	–
0.093 nM	2.5 nM	–	–	CCCOC[C@H]1C(=O)N[C@@H]([C@@H](C)CC)C(=O)N(C)CC(=O)N(C)[C@H]2C/C=C\CCN(C2=O)[C@@H](Cc2ccc(C(F)(F)F)cc2)C(=O)N(C)CC(=O)N[C@@H](CCc2ccc(C(F)(F)F)c(OC)c2)C(=O)N2C[C@H](OCC)C[C@H]2C(=O)NC2(CCC2)C(=O)N(C)[C@@H](C2CCCC2)C(=O)N(C)[C@H](C(=O)N(C)CCC)CC(=O)N1C [PP2017]	–	–	A (a compound having 10 or more and less than 20 is denoted as A)	A (a compound having 10 or more and less than 20 is denoted as A)	–	–
–	19.2 nM	0.43 nM	–	CCO[C@@H]1C[C@H]2C(=O)NC3(CC(C)(C)C3)C(=O)N(C)[C@@H](C3CCCC3)C(=O)N(C)[C@H](C(=O)N(C)C)CC(=O)N(C)[C@@H]([C@@H](C)OC)C(=O)N[C@@H]([C@@H](C)CC)C(=O)N3CCC[C@H]3C(=O)N(C)[C@H]3C/C=C\CCN(C3=O)[C@@H](Cc3ccc(C(F)(F)F)cc3)C(=O)N(C)CC(=O)N[C@@H](CCc3ccc(C(F)(F)F)c(Cl)c3)C(=O)N2C1 [PP3206]	–	–	–	–	A (a compound having 10 or more and less than 20 is denoted as A)	A (a compound having 10 or more and less than 20 is denoted as A)
0.21 nM	13 nM	–	–	CC[C@H](C)[C@@H]1NC(=O)[C@H](CC2CC2)N(C)C(=O)C[C@@H](C(=O)N(C)C)N(C)C(=O)[C@H](C2CCCC2)N(C)C(=O)C2(CCC2)N(C)C(=O)[C@@H]2C[C@@H](C)CN2C(=O)[C@H](CCc2cc(F)c(C(F)(F)F)c(F)c2)NC(=O)CN(C)C(=O)[C@H](Cc2ccc(C)cc2)N2CC/C=C\C[C@@H](C2=O)N(C)C(=O)[C@@H]2CCCN2C1=O [PP1801]	B (a compound having 3 or more and less than 10 is denoted as B)	A (a compound having 10 or more and less than 20 is denoted as A)	–	–	–	–
